Measurements: patent publication US6573296B2, “Therapeutic quassinoid preparations with antineoplastic, antiviral, and herbistatic activity” (priority 1997, dated 2003)
Like-named read-outs stand apart in the source and are kept apart here.

Experiments:
L1210 = test: soft agar disk diffusion zone of inhibition assay; assay type: cell-based, mice
C38 = test: soft agar disk diffusion zone of inhibition assay; assay type: cell-based, mice
CX-1 = test: soft agar disk diffusion zone of inhibition assay; assay type: cell-based, human
From the text: (§1) The following human tumors were used: Human adenosquamous lung tumor H-125 (7) and colon tumors H8, HCT-116, and CX-1 were used for in vitro testing only. Each human cell line was maintained in culture until plating was done. HCT-116, H8, and CX-1 were maintained in McCoy's media and heat inactivated fetal bovine serum (11% FBS). It was passaged (1:5 dilution) twice week following enzymatic dissociation using a trypsin/PBS-EDTA mixture. H-125 was maintained in CMRL/Fischer media (1:1) with 11% FBS. It was mechanically dissociated and passaged (3:10 dilution) weekly. For the plating assay, all cells were mechanically dispersed and diluted in the CMRL/Fischer. media mixture.

[1] = test system: leukemia and solid tumor cells; test: in vitro differential cytotoxicity, solid tumor versus leukemia; assay type: cell-based; conditions: for solid tumor selectivity in vitro: solid tumor versus leukemia zones
[2] = test system: colon adenocarcinoma #38 [C38]; test: in vivo chemotherapy of SC transplanted tumor; set-up: species or system mice; conditions: for Cures / MTD Total Dose: C38; for Cures: IV at MTD, cured/total mice; for MTD Total Dose: IV, days: Glaucarubinone 3,5-10, Holacanthone 3-12, Glaucarubolone 3-6, Chaparrinone 3-9; for in vivo activity against C38, in words: mouse
From the text: (§2) Mice. Inbreds mice used were C57B1/6, C3H/He, Balb/c, and DBA/2; hybrids were: B6D2F1 (C57B1/6 females×DBA/2 males), and CD2F1 (Balb/c females×DBA/2 males). All mice were obtained from the Frederick Cancer Research Facility, Frederick, Md.
(§3) Tumors were maintained in the mouse strain of origin and were transplanted into either an appropriate F1 hybrid or the strain of origin for therapy trials. All mice were over 17 g at the start of therapy; the range of individual body weights in each experiment was within 2 g. The mice were supplied food and water ad libitum.
(§4) Antitumor Agents. The compound easily dissolved in the diluent which consisted of 3% [V/V (100%-Pure)] Ethanol, 1% (V/V) polyoxyethylanesorbitan monopalmitate (P.O.E.40) and 96% sterile distilled water. The primary route of administration was intravenous (IV).
(§5) […] Chemotherapy. The methods of protocol design, tumor transplantation, drug treatment, endpoint determination, definition of terms, toxicity evaluation, data analysis, quantification of tumor cell kill, and the biologic significance of the drug treatment results with transplantable tumors have been presented. The following is a brief summary of those methods as they apply to the work described.
(§6) The animals necessary to begin an experiment were pooled, implanted bilaterally SC on day 0 with 30 to 60 mg tumor fragments using a 12 gauge trocar, and again pooled before randomization to the various treatment and control group. Chemotherapy was either started within 3 days after tumor implantation while the number of cells per mouse was relatively small (10^7 to 10^8 cells), or allowed to grow to palpation (about 3×10^8 cells) in a more advanced stage trial.
(§7) Tumors were measured with a caliper either once or twice weekly (as needed) until either tumors exceeded 1500 mg or cure was. assured. Tumor weights were estimated from two-dimensional measurements:
(§8) Tumor Weight (mg)=(a×b^2)/2, where a and b are the tumor length and width (mm) respectively.
(§9) Tumor growth delay. (T-C value), where T is the median time (in days) required for the treatment group tumors to reach a predetermined size, and C is the median time (in days) for the control group tumors to reach the same size. Tumor-free survivors were excluded from these calculations (cures were tabulated separately).
(§10) Calculation of tumor cell kill. For SC growing tumors, the log10 cell kill was calculated from the following formula: [formula]
(§11) Where T-C is the tumor growth delay (in days) as described above and Td is the tumor volume doubling time (in days), the latter estimated from the best fit straight line from a log-linear growth plot of the control-group tumors in exponential growth (500 to 1500 mg range). The conversion of the T-C values of log10 cell kill is possible because the Td for tumors regrowing post-treatment approximated the Td values of the tumors in untreated control mice.
(§12) Determination of activity by tumor growth inhibition (T/C value). Measurements were carried out simultaneously in both the treatment and control groups. When the control group tumors reached approximately 750-1500 mg in size (median of group), the median tumor weight of each group was determined (including zeros).

[3] = test system: mammary adenocarcinoma #16/C [Mamm 16/C]; test: in vivo chemotherapy of SC transplanted tumor; set-up: species or system mice; conditions: for MTD Total Dose: MAM 16/C, IV days: Glaucarubinone 1-11, Holacanthone 1-9/, Chaparrinone 1-6; for in vivo activity against Mam 16/C, in words: mouse
From the text: as §2, §3, §4, §5, §6, §7, §8, §9, §10, §11, §12

M17/Adr = conditions: multidrug resistant, p-glycoprotein expressing mammary tumor versus leukemia
H8 = test: soft agar disk diffusion zone of inhibition assay; assay type: cell-based, human
From the text: as §1

P388 = test: soft agar disk diffusion zone of inhibition assay; assay type: cell-based, mice; conditions: 0.25 ug/disk
[4] = test system: pancreatic ductal adenocarcinoma #03 [PO3]; test: in vivo chemotherapy of SC transplanted tumor; set-up: species or system mice; conditions: for % T/C / Cures / Log Cell Kill / MTD Total Dose: PO3
From the text: as §2, §3, §4, §5, §6, §7, §8, §9, §10, §11, §12

human rhinovirus-14 = test: cytopathic effect of rhinovirus in HeLa cells; assay type: cell-based; conditions: HeLa cells (Wisconsin strain), visually observed
Description: C. HeLa cells (Wisconsin strain, Berlin, Germany) were contacted with human rhinovirus-14. Infected cells (Wisconsin strain) were visually observed. […] HeLa cells were not killed by any compounds used. Cells of other HeLa lines (eg. ATCC CCL2) were killed. Glaucarubolone, simalikalactone D and chaparrinone were tested on cell killing and virus production by primary blood monocytes. All three drugs were tested at five concentrations (0, 10^−9, 10^−8, 10^−7, and 10^−6 M). Drugs were given at different times pre-infection, given at the time of infection, or were administered at different times post-infection.

[5] = test system: porcine pseudorabies virus; conditions: rabbit kidney cells, visually monitored
[6] = test system: mammary adenocarcinoma 17/A/ADR [Mamm 17/Adr]; test: in vivo chemotherapy of SC transplanted tumor; set-up: species or system mice
From the text: as §2, §3, §4, §5, §6, §7, §8, §9, §10, §11, §12

NADH oxidase = NADH oxidase activity of soybean hypocotyl plasma membrane vesicles; assay type: biochemical; conditions: Isolated PM vesicles; read-out: ED50, Inhibition of NADH oxidase
soybean hypocotyls = test: growth of sections cut from dark-grown soybean hypocotyls; conditions: Excised segments of etiolated soybean hypocotyls (18 h)
Tomato plants = test: growth of plants in peat after treatment; assay type: in vivo
Description: Tomato plants about 3.5 cm high at the time of treatment were grown in peat in a flat of 1.5 inch diameter compartments and were treated with either aqueous simalikalactone (solution QD-1) or aqueous glaucarubolone (solution QD-2) containing 0.1% Triton X-100. The final volume/plant was 10 μ1 for the aqueous solution and 200 µl of the aqueous solution containing Triton X-100. […] With the aqueous treatment, plants also were inhibited but not as markedly as with detergent.

MX-1 = test: soft agar disk diffusion zone of inhibition assay; assay type: cell-based, human; conditions: dose line (5, 1 or 0.3 ug/disk) not clear
C16 = test: in vivo chemotherapy of SC transplanted tumor; set-up: species or system mice
From the text: as §2, §3, §4, §5, §6, §7, §8, §9, §10, §11, §12

[7] = IV days: Glaucarubinone 4-15, Peninsularinone 3-13
[8] = 5 ug/disk (figure before the colon)
[9] = C16, IV days 3,5,7,9,11,13 (Twice Daily)
[10] = IV days 4,6,8,10,12,14 (Twice Daily)

CC(=O)O[C@H]1C(=O)O[C@@H]2C[C@H]3C(C)=CC(=O)[C@@H](O)[C@]3(C)[C@H]3[C@@]4(O)OC[C@]32[C@@H]1[C@@H](C)[C@H]4O [Holacanthone]
zone of inhibition L1210 (L1210; 12 ug/disk): 12:310 ZONE UNITS | zone of inhibition C38 (C38; 12 ug/disk): 950 ZONE UNITS | zone of inhibition CX-1 (CX-1; 12 ug/disk): 900 ZONE UNITS | solid tumor selectivity in vitro [1]: demonstrated solid tumor selectivity | Cures [2]: 0.5 | MTD Total Dose [2]: 188 mg/kg | MTD Total Dose [3]: 80 mg/kg | differential / selectivity for M17/Adr (Mam 17/Adr) (M17/Adr): demonstrated selectivity

(−)-Peninsularinone
zone of inhibition L1210 (L1210; 0.25 ug/disk): 0.25:310 ZONE UNITS | zone of inhibition H8 (H8; 0.25 ug/disk): 510 ZONE UNITS | zone of inhibition (P388), printed in C38 column (P388): 700 (P388) ZONE UNITS | % T/C [4, 7]: 3% | Cures [4, 7]: 0/5 | Log Cell Kill [4, 7]: 2.0 | MTD Total Dose [4, 7]: 4.3 mg/kg | cytopathic effect of human rhinovirus-14 (human rhinovirus-14): Cytopathic effect was delayed | cytopathic effect of porcine pseudorabies virus [5]: Inhibitory effect was also observed

Ailanthinone
zone of inhibition L1210 (L1210; 2 ug/disk): 2:290 ZONE UNITS | zone of inhibition C38 (C38; 2 ug/disk): 340 ZONE UNITS | zone of inhibition CX-1 (CX-1; 2 ug/disk): 300 ZONE UNITS | solid tumor selectivity in vitro [1]: no solid tumor selectivity

CC1=CC(=O)[C@@H](O)[C@]2(C)[C@H]3[C@@]4(O)OC[C@@]35[C@@H](C[C@@H]12)OC(=O)C[C@H]5[C@@H](C)[C@H]4O [Chaparrinone]
zone of inhibition L1210 (L1210; [8]): 5:200 ZONE UNITS | zone of inhibition C38 (C38; 5 ug/disk): 920 ZONE UNITS | zone of inhibition CX-1 (CX-1; 5 ug/disk): 480 ZONE UNITS | zone of inhibition H8 (H8; 5 ug/disk): 270 ZONE UNITS | solid tumor selectivity in vitro [1]: demonstrated solid tumor selectivity | Cures [2]: 3/5 | MTD Total Dose [2]: 232 mg/kg | in vivo activity against C38, in words [2]: therapeutic activity | MTD Total Dose [3]: 90 mg/kg | in vivo activity against Mam 16/C, in words [3]: activity | % T/C ([6]; MAM 17/AdR, IV days 1-10): 42% | Cures ([6]; MAM 17/AdR, IV days 1-10): 0/5 | MTD Total Dose ([6]; MAM 17/AdR, IV days 1-10): 260 mg/kg | in vivo activity against Mam 17/Adr, in words ([6]; mouse, in vivo): activity | differential / selectivity for M17/Adr (Mam 17/Adr) (M17/Adr): demonstrated selectivity

CC[C@@H](C)C(=O)O[C@H]1C(=O)O[C@@H]2C[C@H]3C(C)=CC(=O)[C@@H](O)[C@]3(C)[C@H]3[C@@H](O)[C@H](O)[C@]4(C)OC[C@]32[C@@H]14 [simalikalactone D]
cytopathic effect of human rhinovirus-14 (human rhinovirus-14): Cytopathic effect was delayed | EC50 (NADH oxidase): 0.4 µM | EC50 (soybean hypocotyls; read-out: ED50, Inhibition of 2,4-D (1 μM)-induced growth): 3.5 µM | EC50 (soybean hypocotyls; read-out: ED50, Inhibition of control growth): 2.5 µM | effect on tomato plants, in words (Tomato plants; 1:1000 and 1:10,000 dilutions in detergent solution, 30 days after treatment): still inhibited | effect on tomato plants, in words (Tomato plants; 100 Mm diluted 1:100 in 0.1% Triton X-100): did not grow and eventually died | cytopathic effect of porcine pseudorabies virus [5]: Inhibitory effect was also observed

Glaucarubinone
zone of inhibition L1210 (L1210; 0.3 ug/disk): 160 ZONE UNITS | zone of inhibition L1210 (L1210; 1 ug/disk): 300 ZONE UNITS | zone of inhibition L1210 (L1210; [8]): 600 ZONE UNITS | zone of inhibition C38 (C38; 0.3 ug/disk): 450 ZONE UNITS | zone differential between C38 and L1210 (C38; 1 ug/disk): 400 units | zone of inhibition C38 (C38; 1 ug/disk): 700 ZONE UNITS | zone of inhibition C38 (C38; 5 ug/disk): 950 ZONE UNITS | zone of inhibition CX-1 (CX-1; dose line (5, 1 or 0.3 ug/disk) not clear): 400 ZONE UNITS | zone of inhibition (MX-1), printed in H8 column (MX-1): 600 (MX-1) ZONE UNITS | zone differential for PO3 ([1]; PO3 versus L1210, compared with 400 units for C38): similar, or greater differential | solid tumor selectivity in vitro [1]: solid tumor selective | % T/C (C16; [9]): 42% | Cures (C16; [9]): 0/5 | MTD Total Dose (C16; [9]): 18 mg/kg | in vivo activity against Col26, in words (C16; mouse, in vivo): Antitumor activity | Cures [2]: 1/5 | MTD Total Dose [2]: 9.1 mg/kg | in vivo activity against C38, in words [2]: curative activity | MTD Total Dose [3]: 24 mg/kg | in vivo activity against Mam 16/C, in words [3]: Antitumor activity | % T/C [4, 10]: 0% | Cures [4, 10]: 0.6 | Log Cell Kill [4, 10]: 3.1 | MTD Total Dose [4, 10]: 16 mg/kg | % T/C [4, 7]: 15% | Cures [4, 7]: 1/6 | Log Cell Kill [4, 7]: 1.5 | MTD Total Dose [4, 7]: 16 mg/kg | in vivo activity against PO3, in words ([4]; mouse, in vivo): curative activity | differential / selectivity for M17/Adr (Mam 17/Adr) (M17/Adr): no differential

quassimarine
cytopathic effect of human rhinovirus-14 (human rhinovirus-14): Cytopathic effect was delayed | cytopathic effect of porcine pseudorabies virus [5]: Inhibitory effect was also observed
